# Assay results published in patent US12139488B2, “Pyrido[3,2-d]pyrimidine compounds uses thereof for treating a proliferative disease” (Universite de Montreal, priority 2021, dated 2024).
# Like-named read-outs stand apart in the source and are kept apart here.
# Key:
# Type in all cases: cell-based, human
# [1] = test system: pERK in RAS-mutant cancer cell lines; assay: Phospho-ERK inhibition (AlphaLISA), panel of RAS-mutant cancer cell lines; conditions: in 10 of the 13 RAS-mutant cell lines tested
# Experimental: (§1) All cancer cell lines (A375, A101D, A2058, RKO, HT29 SK-MEL 30, IPC298, HepG2, HCT-116, Lovo, SWV620, SW480, NCI-H358, NCI-H2122, Calu-6, NCIH2087, NCIH1755, NCIH1666 and Mewo) were obtained from ATCC and cultured in RPMI-1640 medium (Gibco) supplemented with 5% heat inactivated fetal bovine serum (FBS, Wisent) at 37° C. under 5% CO2. Cells were maintained in T175 flasks (Greiner). They were passaged by removing the culture medium, washing once in 10 mL of room temperature Phosphate Buffered Saline (PBS; Wisent) and incubating at 37° C. with 2 mL of 0.05% Trypsin (Thermo-Fisher). […]
# After treatment, media was removed and cells were lysed in 50 μL of 1× AlphaScreen Ultra Lysis Buffer (Perkin Elmer). […] After completion of the reactions, the signals were recorded on an EnVision plate reader (Perkin Elmer) using built in AlphaLISA® settings.
# The effect of each compound dilution on the pERK signal was expressed in % inhibition and calculated as follows. […]
# The ability of each compound to inhibit pERK signal was expressed as an IC50 value obtained by plotting the inhibition values for each data point of a dilution series and fitting the obtained curves using a log(agonist) versus response-variable slope (four parameters) function using GraphPadPrism (V7.0) or Dotmatics Screening Ultra platform. […]
# [2] = test system: pERK in Mewo cells (NF1 LOF); assay: Phospho-ERK inhibition (AlphaLISA), Mewo; conditions: for Mewo pERK % Ymin: value in parentheses
# Experimental: (§2) All cancer cell lines (A375, A101D, A2058, RKO, HT29 SK-MEL 30, IPC298, HepG2, HCT-116, Lovo, SWV620, SW480, NCI-H358, NCI-H2122, Calu-6, NCIH2087, NCIH1755, NCIH1666 and Mewo) were obtained from ATCC and cultured in RPMI-1640 medium (Gibco) supplemented with 5% heat inactivated fetal bovine serum (FBS, Wisent) at 37° C. under 5% CO2. Cells were maintained in T175 flasks (Greiner). They were passaged by removing the culture medium, washing once in 10 mL of room temperature Phosphate Buffered Saline (PBS; Wisent) and incubating at 37° C. with 2 mL of 0.05% Trypsin (Thermo-Fisher). Trypsin was then inactivated by adding complete growth medium and the cells were then replated in a T175 culture dish at the appropriate dilution. All cell lines were routinely tested for mycoplasma contamination. Tissue type and mutational status of each cell line can be found in Table B.
# (§3) AlphaLISA® SureFire® Ultra™ p-ERK 1/2 (Thr202/Tyr204) analysis was conducted on cells plated in 100 μL of complete RPMI-1640 growth medium in 96-well flat-bottomed transparent dishes (Costar) at a density indicated in Table C. Cells were maintained overnight at 37° C. under 5% CO2 before treatment with compounds' dilution series for one hour. The cell density in cells/cm^2 corresponds to cell number divided by the area of one well of a 96-well plate ([…]).
# (§4) In a dilution series 100 μL/well of test substance dilution prepared in complete RPMI-1640 growth media was added to the cells. The dilution series is selected so that ten concentrations cover a range from 10 μM to 0.33 nM. If necessary the initial concentration of 10 μM is increased to 100 μM or lowered to 1 μM (as in the case of A375 and H1666 cells, which are generally more sensitive to the compounds) and further dilution is carried out accordingly. The final concentration of DMSO in the assay is set at 0.5%.
# (§5) After treatment, media was removed and cells were lysed in 50 μL of 1× AlphaScreen Ultra Lysis Buffer (Perkin Elmer). The AlphaLISA® SureFire® Ultra™ p-ERK 1/2 (Thr202/Tyr2O4) (PerkinElmer) reactions were performed with 5 μL of cell lysate according to the manufacturer's specifications in 384-well proxyplates (Perkin Elmer) followed by overnight incubation of the reactions at room temperature in a humidified chamber. After completion of the reactions, the signals were recorded on an EnVision plate reader (Perkin Elmer) using built in AlphaLISA® settings.
# (§6) The effect of each compound dilution on the pERK signal was expressed in % inhibition and calculated as follows. An internal 100% inhibition control ([…] trametinib, cat #HY-10999; MedChem Express; CAS #871700-17-3) was included in each plate and used as a measure of pERK background. First, the value obtained for trametinib was subtracted from each data point. The average of DMSO (vehicle) controls (set as 0% inhibition) was established and used to calculate % inhibition: % inhibition=100*(1-((pERK signalcompound)/(pERK signalDMSO)))
# (§7) The ability of each compound to inhibit pERK signal was expressed as an IC50 value obtained by plotting the inhibition values for each data point of a dilution series and fitting the obtained curves using a log(agonist) versus response-variable slope (four parameters) function using GraphPadPrism (V7.0) or Dotmatics Screening Ultra platform.
# (§8) When present, paradoxical pERK induction is inferred from the negative % inhibition values observed in the pERK IC50 curves of a compound.
# [3] = test system: Lovo cells (KRAS-G13D); assay: Proliferation inhibition (CellTiter-Glo), Lovo; conditions: 3 days, read-out: Lovo Prolif. EC50
# Experimental: as §2
# (§9) CellTiter-Glo® viability analysis was conducted on cells plated in 100 μL of complete RPMI-1640 growth medium in 96-well flat-bottomed white opaque plates (Greiner or Croning) at a density indicated in Table E (for each CCL, number of cells plated per well of a 96-well plate to perform the CellTiter-Glo® cell viability assay). The cell density in cells/cm^2 would correspond to cell number divided by the area of one well of a 96-well plate (0.32 cm^2). […]
# (§10) After 3 days of incubation, the growth media were removed by aspiration and 60 μL of diluted CellTiter-Glo® reagent (10 μL CellTiter-Glo® reagent+50 μL of PBS) was added to each well. […] Luminescence signals were then acquired on a Synergy Neo2 plate reader (Biotek).
# (§11) The effect of each compound dilution on the proliferation of cancer cell lines was expressed in % inhibition and calculated as follows. […]
# as §7, with “proliferation” for “pERK signal”, “a EC50” for “an IC50”, “effect” for “inhibition”
# [4] = test system: NCIH1755 cells (BRAF G469A); assay: Proliferation inhibition (CellTiter-Glo), NCIH1755; conditions: NCIH1755, 3 days, read-out: NCIH1755 Prolif. EC50
# Experimental: as §2, §9, §10, §11
# as §7, with “proliferation” for “pERK signal”, “a EC50” for “an IC50”, “effect” for “inhibition”
# [5] = test system: pERK in Lovo cells (KRAS-G13D); assay: Phospho-ERK inhibition (AlphaLISA), Lovo; conditions: for Lovo pERK % Ymin: value in parentheses
# Experimental: as §2, §3, §4, §5, §6, §7, §8
# [6] = test system: A101D cells (BRAF V600E); assay: Proliferation inhibition (CellTiter-Glo), A101D; conditions: 3 days, read-out: A101D Prolif. EC50
# Experimental: as §1, §10, §11
# as §7, with “proliferation” for “pERK signal”, “a EC50” for “an IC50”, “effect” for “inhibition”
# [7] = test system: A2058 cells (BRAF V600E); assay: Proliferation inhibition (CellTiter-Glo), A2058; conditions: A2058, 3 days; read-out: A2058 Prolif. EC50
# Experimental: as §1, §10, §11
# as §7, with “proliferation” for “pERK signal”, “a EC50” for “an IC50”, “effect” for “inhibition”
structure (smiles),measurement,setting,value
"Cc1ccc2c(Nc3cccc(Cl)c3F)nccc2c1NC(=O)c1csc2c(N)ncnc12 [Belvarafenib, reference compound]",YMIN of pERK IC50 curves,[1],< −30%
same,IC50,"[2]; Homo sapiens, MeWo",0.03 to 0.3 µM
same,Mewo pERK % Ymin,[2]; Mewo,−116%
same,EC50,"[3]; Homo sapiens, 72 h",< 0.03 µM
same,EC50,"[4]; Homo sapiens, NCI-H1755, 72 h",> 3 µM
same,IC50,"[5]; Homo sapiens, LoVo",< 0.03 µM
same,Lovo pERK % Ymin,[5]; Lovo,−12%
Nc1cccc2c1ncn2-c1ccc2ncnc(Nc3c(F)ccc(NS(=O)(=O)c4cccc(Cl)c4Cl)c3F)c2n1 [Example 99],EC50,[6],< 0.03 µM
same,EC50,[7],< 0.03 µM
same,IC50,[2]; Mewo,0.03 to 0.3 µM
same,Mewo pERK % Ymin,[2]; Mewo,−7%
same,EC50,[3],< 0.03 µM
same,EC50,[4],< 0.03 µM
same,IC50,[5]; Lovo,0.03 to 0.3 µM
same,Lovo pERK % Ymin,[5]; Lovo,−15%
CC1(O)CCN(c2cccc3c2ncn3-c2ccc3ncnc(Nc4c(F)ccc(NS(=O)(=O)c5cccc(Cl)c5Cl)c4F)c3n2)CC1 [Example 524],EC50,[6],< 0.03 µM
same,EC50,[7],< 0.03 µM
same,IC50,[2]; Mewo,0.03 to 0.3 µM
same,Mewo pERK % Ymin,[2]; Mewo,−5%
same,EC50,[3],< 0.03 µM
same,EC50,[4],0.3 to 3 µM
same,IC50,[5]; Lovo,0.03 to 0.3 µM
same,Lovo pERK % Ymin,[5]; Lovo,−5%
